Tests used:
[1] = tested on: Blumeria graminis f. sp. tritici; experiment: Test K (K1-K5): wheat powdery mildew, Compound 81 alone and in mixtures, observed and Colby expected control; assay type: in vivo; details: for Test K4 Obsd, disease control rating / Test K5 Obsd, disease control rating: wheat powdery mildew
Septoria nodorum = experiment: Test E: Septoria glume blotch, preventive spray on wheat seedlings, visual disease rating; details: Parastagonospora nodorum, in Triticum aestivum, read-out: Test E rating (disease control), Septoria glume blotch; 100 = 100% disease control, 0 = no disease control relative to the controls
Septoria tritici [2] = experiment: Test M (M1-M5): wheat leaf blotch, Compound 81 alone and in mixtures, observed and Colby expected control; assay type: in vivo
Botrytis cinerea = experiment: Test A: tomato Botrytis, preventive spray on tomato seedlings, visual disease rating; details: Botrytis cinerea, in Solanum lycopersicum, read-out: Test A rating (disease control), tomato Botrytis; 100 = 100% disease control, 0 = no disease control relative to the controls
[3] = tested on: Puccinia recondita f sp. tritici; experiment: Test L (L1-L5): wheat leaf rust, Compound 81 alone and in mixtures, observed and Colby expected control; assay type: in vivo; details: for Test L4 Obsd, disease control rating / Test L5 Obsd, disease control rating: wheat leaf rust
Phytophthora infestans = experiment: whole plant or invertebrate; assay type: in vivo; details: Phytophthora infestans, in Solanum lycopersicum, read-out: Test C rating (disease control)
[4] = tested on: Puccinia recondita f. sp. tritici; experiment: Test G: wheat leaf rust, spray after inoculation (curative) on wheat seedlings, visual disease rating; assay type: in vivo; details: sprayed after inoculation, 100 = 100% disease control, 0 = no disease control
Text: (§1) A hyphen (-) indicates no test results.

Alternaria solani = experiment: Test B: tomato early blight, preventive spray on tomato seedlings, visual disease rating; details: Alternaria solani, in Solanum lycopersicum, read-out: Test B rating (disease control)
Septoria tritici [5] = experiment: Test F: wheat leaf blotch, preventive spray on wheat seedlings, visual disease rating; assay type: in vivo; details: Zymoseptoria tritici, 100 = 100% disease control, 0 = no disease control relative to the controls
Text: as §1

[6] = tested on: Puccinia recondita f. sp. tritici; experiment: Test H: wheat leaf rust, preventive spray on wheat seedlings, visual disease rating; details: read-out: Test H rating (disease control), wheat leaf rust, sprayed the day before inoculation; 100 = 100% disease control, 0 = no disease control
[7] = tested on: Blumeria graminis f. sp. tritici; experiment: Test I: wheat powdery mildew, preventive spray on wheat seedlings, visual disease rating; details: Blumeria graminis, in Triticum aestivum, read-out: Test I rating (disease control), wheat powdery mildew; 100 = 100% disease control, 0 = no disease control relative to the controls

With Cc1nn(C)c(Nc2c(F)cc(Cl)cc2F)c1-c1ccc(F)cc1Cl [Compound 81, N-(4-chloro-2,6-difluorophenyl)-4-(2-chloro-4-fluorophenyl)-1,3-dimethyl-1H-pyrazole-5-amine] the “Test K1 Obsd” value ([1]; Compound 81 1 ppm alone) was 0%, the “Test K2 Obsd” value ([1]; Compound 81 1 ppm alone) was 91% and the “Test K3 Obsd” value ([1]; Compound 81 1 ppm alone) was 0%. For the same compound, the “Test K1 Obsd” value ([1]; Compound 81 2 ppm alone) was 87%, the “Test K2 Obsd” value ([1]; Compound 81 2 ppm alone) was 91% and the “Test K3 Obsd” value ([1]; Compound 81 2 ppm alone) was 0%. For the same compound, the “Test K1 Obsd” value ([1]; Compound 81 5 ppm alone) was 99%, the “Test K2 Obsd” value ([1]; Compound 81 5 ppm alone) was 91% and the “Test K3 Obsd” value ([1]; Compound 81 5 ppm alone) was 90%. For the same compound, the “Test K1 Obsd” value ([1]; Compound 81 10 ppm alone) was 100%, the “Test K2 Obsd” value ([1]; Compound 81 10 ppm alone) was 100% and the “Test K3 Obsd” value ([1]; Compound 81 10 ppm alone) was 99%. The “Test K4 Obsd, disease control rating” value ([1]; Compound 81 1 ppm alone) was 0%, the “Test K5 Obsd, disease control rating” value ([1]; Compound 81 1 ppm alone) was 0% and the “Test K4 Obsd, disease control rating” value ([1]; Compound 81 2 ppm alone) was 0%. The “Test K5 Obsd, disease control rating” value ([1]; Compound 81 2 ppm alone) was 0%, the “Test K4 Obsd, disease control rating” value ([1]; Compound 81 5 ppm alone) was 0% and the “Test K5 Obsd, disease control rating” value ([1]; Compound 81 5 ppm alone) was 0%. For the same compound, the “Test K5 Obsd, disease control rating” value ([1]; Compound 81 10 ppm alone) was 100%, the pest or weed control at 200 µg/mL (Septoria nodorum) was 90% and the “Test M1 Obsd, disease control rating” value (Septoria tritici [2]; Compound 81 0.01 ppm alone) was 0%. The “Test M2 Obsd, disease control rating” value (Septoria tritici [2]; Compound 81 0.01 ppm alone) was 0%, the “Test M1 Obsd, disease control rating” value (Septoria tritici [2]; Compound 81 0.1 ppm alone) was 0% and the “Test M2 Obsd, disease control rating” value (Septoria tritici [2]; Compound 81 0.1 ppm alone) was 0%. For the same compound, the “Test M1 Obsd, disease control rating” value (Septoria tritici [2]; Compound 81 1 ppm alone) was 86%, the “Test M2 Obsd, disease control rating” value (Septoria tritici [2]; Compound 81 1 ppm alone) was 95% and the “Test M1 Obsd, disease control rating” value (Septoria tritici [2]; Compound 81 10 ppm alone) was 100%. For the same compound, the “Test M2 Obsd, disease control rating” value (Septoria tritici [2]; Compound 81 10 ppm alone) was 100%, the “Test M3 Obsd disease control rating” value (Septoria tritici [2]; Compound 81 alone 0.01 ppm) was 0% and the “Test M4 Obsd disease control rating” value (Septoria tritici [2]; Compound 81 alone 0.01 ppm) was 0%. The “Test M5 Obsd disease control rating” value (Septoria tritici [2]; Compound 81 alone 0.01 ppm) was 0%, the “Test M3 Obsd disease control rating” value (Septoria tritici [2]; Compound 81 alone 0.1 ppm) was 0% and the “Test M4 Obsd disease control rating” value (Septoria tritici [2]; Compound 81 alone 0.1 ppm) was 23%. The “Test M5 Obsd disease control rating” value (Septoria tritici [2]; Compound 81 alone 0.1 ppm) was 3%, the “Test M3 Obsd disease control rating” value (Septoria tritici [2]; Compound 81 alone 1 ppm) was 52% and the “Test M4 Obsd disease control rating” value (Septoria tritici [2]; Compound 81 alone 1 ppm) was 66%. For the same compound, the “Test M5 Obsd disease control rating” value (Septoria tritici [2]; Compound 81 alone 1 ppm) was 90%, the “Test M3 Obsd disease control rating” value (Septoria tritici [2]; Compound 81 alone 10 ppm) was 100% and the “Test M4 Obsd disease control rating” value (Septoria tritici [2]; Compound 81 alone 10 ppm) was 100%. The “Test M5 Obsd disease control rating” value (Septoria tritici [2]; Compound 81 alone 10 ppm) was 100%, the pest or weed control at 200 µg/mL (Botrytis cinerea) was 100% and the “Test L1 Obsd” value ([3]; Compound 81 1 ppm alone) was 88%. For the same compound, the “Test L2 Obsd” value ([3]; Compound 81 1 ppm alone) was 9%, the “Test L3 Obsd” value ([3]; Compound 81 1 ppm alone) was 9% and the “Test L1 Obsd” value ([3]; Compound 81 2 ppm alone) was 68%. For the same compound, the “Test L2 Obsd” value ([3]; Compound 81 2 ppm alone) was 27%, the “Test L3 Obsd” value ([3]; Compound 81 2 ppm alone) was 9% and the “Test L1 Obsd” value ([3]; Compound 81 5 ppm alone) was 91%. The “Test L2 Obsd” value ([3]; Compound 81 5 ppm alone) was 74%, the “Test L3 Obsd” value ([3]; Compound 81 5 ppm alone) was 41% and the “Test L1 Obsd” value ([3]; Compound 81 10 ppm alone) was 98%. The “Test L2 Obsd” value ([3]; Compound 81 10 ppm alone) was 91%, the “Test L3 Obsd” value ([3]; Compound 81 10 ppm alone) was 88% and the “Test L4 Obsd, disease control rating” value ([3]; Compound 81 1 ppm alone) was 0%. For the same compound, the “Test L5 Obsd, disease control rating” value ([3]; Compound 81 1 ppm alone) was 18%, the “Test L4 Obsd, disease control rating” value ([3]; Compound 81 2 ppm alone) was 27% and the “Test L5 Obsd, disease control rating” value ([3]; Compound 81 2 ppm alone) was 27%. For the same compound, the “Test L4 Obsd, disease control rating” value ([3]; Compound 81 5 ppm alone) was 68%, the “Test L5 Obsd, disease control rating” value ([3]; Compound 81 5 ppm alone) was 55% and the “Test L4 Obsd, disease control rating” value ([3]; Compound 81 10 ppm alone) was 88%. For the same compound, the “Test L5 Obsd, disease control rating” value ([3]; Compound 81 10 ppm alone) was 82%, the pest or weed control at 200 µg/mL (Phytophthora infestans) was 0% and the pest or weed control at 200 µg/mL [4] was 99%. The pest or weed control at 200 µg/mL (Alternaria solani) was 99%, the pest or weed control at 200 µg/mL (Septoria tritici [5]) was 100% and the pest or weed control at 200 µg/mL [6] was 100%. It also gave a pest or weed control at 200 µg/mL [7] of 100%.

From patent publication US20170150719A1, “FUNGICIDAL PYRAZOLES AND THEIR MIXTURES” (E I DU PONT DE NEMOURS AND COMPANY, priority 2010, published 2017)
